Reference: paper PMC5339874, “Fluorene-9-bisphenol is anti-oestrogenic and may cause adverse pregnancy outcomes in mice” (Nature Communications, 2017)

How the values were obtained:
CD-1 mice = experiment: Subchronic and reproductive toxicity tests
Protocol: Immature CD-1 mice (20 days old) were obtained from Experimental Animal Tech Co. of Weitonglihua (Beijing, China) and acclimatized in an experimental environment with a temperature of 22 °C±2 °C, relative humidity between 40 and 60%, and artificial lighting in a 12 h/12 h light-dark cycle. The animals were fed ad libitum with a basic diet from the Laboratory Animal Center of the Academy of Military Medical Sciences (Beijing, China), and drinking water was provided ad libitum. […] The animals were housed five to a cage until the pairing date. The treatment via oral gavage of each mouse was performed once every 3 days beginning on PND 24. The chemicals were dissolved in peanut oil to the appropriate concentrations. The volume of vehicle or chemical solutions administered was adjusted daily based on body weight measured during the dosing period according to the volume-body weight ratio of 5 ml kg^−1 bw. On PND 60, 10 females of each group were weighed and killed by cervical dislocation. The uteri, ovaries, livers, kidneys and spleens were weighed and collected for histological analysis. At the age of PND 77, males and females were paired. Each morning, the females were examined for the presence of vaginal plugs. Gestational day 1 was defined as the day on which a vaginal plug was found. In cases where pairing was unsuccessful, females were re-mated with proven males of the same group, except that females in the 1.2 mg kg^−1 TAM group were re-mated with proven males of the control group. After a 7-day mating period, the males were weighed and killed, and organs were weighed and collected for further analysis. Cauda epididymal sperm was collected from each mouse and observed under a trinocular microscope (Olympus BX53) in physiological saline. A microscopic video was recorded and analysed for sperm quality evaluation. The treatment via oral gavage was continued for the females until day 19 of pregnancy. On post-partum days 0 and 4, the weights of the dams and pups were recorded and the pups were checked for abnormalities. On post-partum day 4, the dams were weighed and killed, and their organs were weighed and collected for further analysis. The ovaries and uteri were examined for the numbers of corpora lutea and implantation sites, respectively. Finally, the non-pregnant and nulliparous females were killed for histopathological analysis. For histological examination, organs and tissues were fixed in formalin fixation, embedded in paraffin, and sectioned serially at 5 μm. Slides were stained with hematoxylin and eosin (H&E), and observed under a light microscope (Olympus BX53).

female CD-1 mice = experiment: Exposure experiment through drinking water; format: in vivo; settings: 10-day exposure via drinking water; no statistically significant difference (P>0.05)
Protocol: Mice with a maximal difference in body weight of 1 g were selected for the experiments and randomly assigned to either the treatment or control groups. […] The animals were fed ad libitum an oestrogen-free diet from Trophic Animal Feed High-tech Co., Ltd. (Nantong, China), and drinking water was provided ad libitum in glass bottles. Before the experiments, the mice were randomly assigned to five groups (n=8). Ultra-pure water was used as a control. FULV was dissolved in ultra-pure water to a concentration of 100 ng l^−1 and used as a positive control. […] Two plastic drinking bottles labelled ‘BPA-free', of different brands, were purchased and denoted Bottle A and Bottle B. The plastic bottles were filled with boiling ultra-pure water from a stainless steel electric water heater and allowed to cool down to room temperature before the animal experiment. The BHPF levels in the cooled boiled waters from Bottle A, Bottle B and the stainless steel electric water heater were determined by GC–MS. No BHPF was detected in the cooled boiled water from the stainless steel electric water heater. The cooled boiled waters from Bottle A and Bottle B were transferred to glass bottles during the experiment. The exposure experiment was performed for 10 days beginning on PND 24. After the period of exposure, the mice were weighed and killed in turns for each group, whereby in each turn only one mouse in a group was killed. Blood was collected by cardiac puncture soon after each animal was killed, and the uteri were removed, blotted and weighed by one experimenter to reduce the risk of bias in the data collection and immediately frozen in liquid nitrogen for gene expression analysis. The relative uterine weight was calculated to evaluate the anti-uterotrophic activity. […] The serum BHPF levels were analysed by GC–MS using the same method as that for human serum. The gene expressions of sprr2a and sprr2b in the uteri were determined by Q-RT-PCR.

SMILES: Oc1ccc(C2(c3ccc(O)cc3)c3ccccc3-c3ccccc32)cc1 [BHPF, 9,9-bis(4-hydroxyphenyl)-fluorene]
- Absorption sites in the uterus of dams (CD-1 mice; 0.4 mg kg^−1 3-d^−1 BHPF): 0.14±0.36
- Birth weight of pups (CD-1 mice; 0.4 mg kg^−1 3-d^−1 BHPF): 1.66±0.21
- Body weight of female pups at PND 4 (CD-1 mice; 0.4 mg kg^−1 3-d^−1 BHPF): 3.08±0.57
- Body weight of male pups at PND 4 (CD-1 mice; 0.4 mg kg^−1 3-d^−1 BHPF): 3.30±0.56
- Implantation sites in the uterus of dams (CD-1 mice; 0.4 mg kg^−1 3-d^−1 BHPF): 15.21±2.02
- Number of dams (CD-1 mice; 0.4 mg kg^−1 3-d^−1 BHPF): 14
- Number of live pups per litter (CD-1 mice; 0.4 mg kg^−1 3-d^−1 BHPF): 12.71±2.55
- weight gain of males from PND 30 (CD-1 mice; 0.4 mg kg^−1 3-d^−1 BHPF): higher weight gain than the control
- non-pregnant females (CD-1 mice; 0.4 mg kg^−1 bw 3-d^−1 BHPF): 1
- Absorption sites in the uterus of dams (CD-1 mice; 2 mg kg^−1 3-d^−1 BHPF): 0.33±0.65
- Birth weight of pups (CD-1 mice; 2 mg kg^−1 3-d^−1 BHPF): 1.59±0.24
- Body weight of female pups at PND 4 (CD-1 mice; 2 mg kg^−1 3-d^−1 BHPF): 3.04±0.62
- Body weight of male pups at PND 4 (CD-1 mice; 2 mg kg^−1 3-d^−1 BHPF): 3.18±0.59
- Implantation sites in the uterus of dams (CD-1 mice; 2 mg kg^−1 3-d^−1 BHPF): 15.42±2.02
- Number of dams (CD-1 mice; 2 mg kg^−1 3-d^−1 BHPF): 12
- Number of live pups per litter (CD-1 mice; 2 mg kg^−1 3-d^−1 BHPF): 11.67±2.06
- non-pregnant females (CD-1 mice; 2 mg kg^−1 bw 3-d^−1 BHPF): 3
- Absorption sites in the uterus of dams (CD-1 mice; 10 mg kg^−1 3-d^−1 BHPF): 0.64±0.67
- Birth weight of pups (CD-1 mice; 10 mg kg^−1 3-d^−1 BHPF): 1.54±0.18
- Body weight of female pups at PND 4 (CD-1 mice; 10 mg kg^−1 3-d^−1 BHPF): 3.05±0.44
- Implantation sites in the uterus of dams (CD-1 mice; 10 mg kg^−1 3-d^−1 BHPF): 16.09±1.81
- Number of dams (CD-1 mice; 10 mg kg^−1 3-d^−1 BHPF): 11
- Number of live pups per litter (CD-1 mice; 10 mg kg^−1 3-d^−1 BHPF): 12.73±1.85
- non-pregnant females (CD-1 mice; 10 mg kg^−1 bw 3-d^−1 BHPF): 3
- fetal death (CD-1 mice; 10 mg kg^−1 bw 3-d^−1 BHPF, a pregnant female): a dead fetus in late pregnancy was observed in the uterus
- Absorption sites in the uterus of dams (CD-1 mice; 50 mg kg^−1 3-d^−1 BHPF): 1.09±1.38
- Birth weight of pups (CD-1 mice; 50 mg kg^−1 3-d^−1 BHPF): 1.64±0.16
- Body weight of female pups at PND 4 (CD-1 mice; 50 mg kg^−1 3-d^−1 BHPF): 3.20±0.53
- Body weight of male pups at PND 4 (CD-1 mice; 50 mg kg^−1 3-d^−1 BHPF): 3.21±0.51
- Implantation sites in the uterus of dams (CD-1 mice; 50 mg kg^−1 3-d^−1 BHPF): 14.45±2.42
- Number of dams (CD-1 mice; 50 mg kg^−1 3-d^−1 BHPF): 11
- Number of live pups per litter (CD-1 mice; 50 mg kg^−1 3-d^−1 BHPF): 10.27±2.53
- late abortion (CD-1 mice; 50 mg kg^−1 bw 3-d^−1 BHPF): one case of late abortion
- maternal death (CD-1 mice; 50 mg kg^−1 bw 3-d^−1 BHPF): one unexplained maternal death during parturition
- non-pregnant females (CD-1 mice; 50 mg kg^−1 bw 3-d^−1 BHPF): 2
- weight gain before pairing (CD-1 mice; BHPF 0.4–50, TAM 1.2 mg kg^−1 bw 3-d^−1): no significant differences in weight gain
- doses causing adverse pregnancy outcomes (CD-1 mice; CD-1 mice): ≥ 2 mg kg^−1 bw 3-d^−1
- doses inducing atrophic endometria (CD-1 mice; CD-1 mice): ≥ 0.4 mg kg^−1 bw 3-d^−1
- pregnancy-related weight gain (CD-1 mice; all BHPF-treated groups): significantly decreased
- analysis of ovary sections (CD-1 mice; females at PND 60): retarded follicular development and reduced the numbers of corpora lutea
- histopathological examination of uteri (CD-1 mice; females at PND 60, 36-day exposure): serious atrophic endometria
- weights of the ovaries on both sides (CD-1 mice; females at PND 60, BHPF groups, 1.2 mg kg^−1 bw 3-d^−1 TAM): not affected
- doses significantly decreasing uterine weights and inducing atrophic endometria (CD-1 mice; intact female mice, oral gavage 36 days from PND 24): ≥ 2 mg kg^−1 3-d^−1
- sperm quality (CD-1 mice; males PND 84): No obvious adverse effects
- pathological examination of seminal vesicle (CD-1 mice; males PND 84, TAM 1.2, BHPF 50 mg kg^−1 bw 3-d^−1 group): one case of unilateral seminal vesicle atrophy
- histopathological examination of ovaries (CD-1 mice; non-pregnant females): haemorrhagic ovary cysts occurred
- expression of sprr2a in the uteri (Q-RT-PCR) (female CD-1 mice): decreased
